In brackets after ≈: the same amount, converted by molar mass. Activity calls are given as the source filed them. The rule behind the calls is not given here.
Columns and labels:
BJ = test: Cytotoxicity against human BJ cells by MTT assay; type: functional
MRC5 = test: Cytotoxicity against human MRC5 cells by MTT assay; type: functional
Adenosine kinase [1] = target: T1, Adenosine kinase (Homo sapiens, UniProt P55263); test: Activity of human ADK expressed in Escherichia coli BL21(DE3) cells assessed as compound phosphorylation by measuring conversion of compound to 5'-phosphate; design: concentration or dose not given beside the values
Target sequence in this assay (P55263 2-362 limits assumed): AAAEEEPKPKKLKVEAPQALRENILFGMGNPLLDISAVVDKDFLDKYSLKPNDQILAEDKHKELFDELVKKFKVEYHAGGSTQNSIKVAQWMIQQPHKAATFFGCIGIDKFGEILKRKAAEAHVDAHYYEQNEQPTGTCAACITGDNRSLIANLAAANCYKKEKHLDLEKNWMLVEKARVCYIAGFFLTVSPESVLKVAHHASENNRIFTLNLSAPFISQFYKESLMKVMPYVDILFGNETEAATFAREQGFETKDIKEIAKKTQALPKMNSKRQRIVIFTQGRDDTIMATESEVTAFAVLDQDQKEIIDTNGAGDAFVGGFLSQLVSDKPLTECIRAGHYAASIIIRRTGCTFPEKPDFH

[2] = Inhibition of Mycobacterium tuberculosis ADK expressed in Escherichia coli BL21(DE3) cells using [3H]adenosine by liquid scintillation counting method
[3] = system: Mycobacterium tuberculosis; test: Antimycobacterial activity against Mycobacterium tuberculosis H37Rv My 331/88 assessed as microbial growth inhibition incubated for 14 days; type: functional; conditions: H37Rv My 331/88, 336 h
[4] = system: Mycobacterium tuberculosis; test: Activity of Mycobacterium tuberculosis ADK expressed in Escherichia coli BL21(DE3) cells assessed as compound phosphorylation by measuring conversion of compound to 5'-phosphate
Adenosine kinase [5] = target: T1, Adenosine kinase; test: Inhibition of human ADK expressed in Escherichia coli BL21(DE3) cells using [3H]adenosine by liquid scintillation counting method
Target sequence in this assay (P55263 whole entry): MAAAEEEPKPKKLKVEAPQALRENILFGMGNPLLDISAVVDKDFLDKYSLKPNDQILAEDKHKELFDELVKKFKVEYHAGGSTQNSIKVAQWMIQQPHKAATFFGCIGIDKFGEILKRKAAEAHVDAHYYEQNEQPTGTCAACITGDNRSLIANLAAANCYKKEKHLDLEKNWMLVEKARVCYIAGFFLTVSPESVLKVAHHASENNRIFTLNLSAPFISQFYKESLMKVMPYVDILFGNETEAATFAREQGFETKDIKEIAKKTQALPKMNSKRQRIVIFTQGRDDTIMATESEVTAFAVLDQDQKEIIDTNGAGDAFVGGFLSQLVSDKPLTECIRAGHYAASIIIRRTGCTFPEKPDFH

Adenosine kinase [6] = target: T1, Adenosine kinase; test: Binding affinity to human ADK expressed in Escherichia coli BL21(DE3) cells assessed as relative STD enhancements of signal from H-1' at 500 uM by 1H STD NMR spectroscopy
Target sequence in this assay (P55263 2-362 limits assumed): as the sequence (P55263 2-362 limits assumed) above

Adenosine kinase [7] = target: T1, Adenosine kinase; test: Binding affinity to human ADK expressed in Escherichia coli BL21(DE3) cells assessed as relative STD enhancements of signal from H-2 at 500 uM by 1H STD NMR spectroscopy
Target sequence in this assay (P55263 2-362 limits assumed): as above

Adenosine kinase [8] = target: T1, Adenosine kinase; test: Binding affinity to human ADK expressed in Escherichia coli BL21(DE3) cells assessed as relative STD enhancements of signal from H-8 at 500 uM by 1H STD NMR spectroscopy
Target sequence in this assay (P55263 2-362 limits assumed): as above

[9] = system: Mycobacterium tuberculosis; test: Binding affinity to Mycobacterium tuberculosis ADK expressed in Escherichia coli BL21(DE3) cells assessed as relative STD enhancements of signal from H-1' at 500 uM by 1H STD NMR spectroscopy
[10] = system: Mycobacterium tuberculosis; test: Binding affinity to Mycobacterium tuberculosis ADK expressed in Escherichia coli BL21(DE3) cells assessed as relative STD enhancements of signal from H-2 at 500 uM by 1H STD NMR spectroscopy
[11] = system: Mycobacterium tuberculosis; test: Binding affinity to Mycobacterium tuberculosis ADK expressed in Escherichia coli BL21(DE3) cells assessed as relative STD enhancements of signal from H-8 at 500 uM by 1H STD NMR spectroscopy

| SMILES | CC50 (BJ) | CC50 (MRC5) | Activity (Adenosine kinase [1]) | IC50 [2] | MIC [3] | Activity [4] | IC50 (Adenosine kinase [5]) | Activity (Adenosine kinase [6]) | Activity (Adenosine kinase [7]) | Activity (Adenosine kinase [8]) | Activity [9] | Activity [10] | Activity [11] |
| --- | --- | --- | --- | --- | --- | --- | --- | --- | --- | --- | --- | --- | --- |
| Nc1ncnc2c1c(-c1cccs1)cn2[C@@H]1O[C@H](CO)[C@@H](O)[C@H]1O | 65.4 µM | 39.4 µM | 2% | > 10 µM | 8 µM (≈ 2.79 µg/mL) | inactive | – | – | – | – | – | – | – |
| Nc1ncnc2c1c(-c1ccc3ccccc3c1)cn2[C@@H]1O[C@H](CO)[C@@H](O)[C@H]1O | 13.9 µM | 13.6 µM | – | 5.33 µM | 2 µM (≈ 0.785 µg/mL) | inactive | – | – | – | – | – | – | – |
| NNC(=O)c1ccncc1 [ISONIAZID] | – | – | – | – | 0.5 µM (≈ 0.0686 µg/mL) | – | – | – | – | – | – | – | – |
| Nc1ncnc2c1c(-c1cc[nH]n1)cn2[C@@H]1O[C@H](CO)[C@@H](O)[C@H]1O | 9.51 µM | 0.18 µM | 7% | > 10 µM | > 250 µM | inactive | – | – | – | – | – | – | – |
| Nc1ncnc2c1c(-c1ccoc1)cn2[C@@H]1O[C@H](CO)[C@@H](O)[C@H]1O | 91.5 µM | 67.9 µM | 9% | > 10 µM | 16 µM (≈ 5.32 µg/mL) | inactive | – | – | – | – | – | – | – |
| CC(C)(C)c1ccc(-c2cn([C@@H]3O[C@H](CO)[C@@H](O)[C@H]3O)c3ncnc(N)c23)cc1 | > 100 µM | 96.3 µM | – | > 10 µM | 62.5 µM (≈ 24.9 µg/mL) | inactive | > 20 µM | – | – | – | – | – | – |
| Cc1ccc(-c2cn([C@@H]3O[C@H](CO)[C@@H](O)[C@H]3O)c3ncnc(N)c23)cc1C | 57.3 µM | 37.9 µM | – | 4.9 µM | 8 µM (≈ 2.96 µg/mL) | inactive | > 20 µM | – | – | – | – | – | – |
| Nc1ncnc2c1c(-c1cc3ccccc3c3ccccc13)cn2[C@@H]1O[C@H](CO)[C@@H](O)[C@H]1O | > 100 µM | 66 µM | – | > 10 µM | 32 µM (≈ 14.2 µg/mL) | inactive | > 10 µM | – | – | – | – | – | – |
| Nc1ncnc2c1c(-c1ccc(C(F)(F)F)cc1)cn2[C@@H]1O[C@H](CO)[C@@H](O)[C@H]1O | 62 µM | 78.8 µM | – | > 10 µM | 4 µM (≈ 1.64 µg/mL) | inactive | > 10 µM | – | – | – | – | – | – |
| Nc1ncnc2c1c(-c1c[nH]cn1)cn2[C@@H]1O[C@H](CO)[C@@H](O)[C@H]1O | 0.12 µM | 0.33 µM | 47% | > 10 µM | > 250 µM | inactive | 13 µM | – | – | – | – | – | – |
| Nc1ncnc2c1c(-c1ncc[nH]1)cn2[C@@H]1O[C@H](CO)[C@@H](O)[C@H]1O | 1.48 µM | 0.15 µM | 19% | > 3 µM | > 250 µM | inactive | > 20 µM | – | – | – | – | – | – |
| COc1ccc(-c2cn([C@@H]3O[C@H](CO)[C@@H](O)[C@H]3O)c3ncnc(N)c23)cc1 | 21.9 µM | 61.4 µM | – | > 10 µM | 16 µM (≈ 5.96 µg/mL) | inactive | > 5 µM | – | – | – | – | – | – |
| Nc1ncnc2c1c(-c1cc3ccccc3o1)cn2[C@@H]1O[C@H](CO)[C@@H](O)[C@H]1O | 21.2 µM | 35.1 µM | – | 1.8 µM | 16 µM (≈ 6.12 µg/mL) | inactive | – | – | – | – | – | – | – |
| Nc1ncnc2c1c(-c1cccc3c1oc1ccccc13)cn2[C@@H]1O[C@H](CO)[C@@H](O)[C@H]1O | > 100 µM | 100 µM | – | 0.6 µM | 4 µM (≈ 1.73 µg/mL) | inactive | > 10 µM | – | – | – | – | – | – |
| Nc1ncnc2c1c(-c1ccsc1)cn2[C@@H]1O[C@H](CO)[C@@H](O)[C@H]1O | 12.9 µM | 42.5 µM | 2% | 6.6 µM | 8 µM (≈ 2.79 µg/mL) | inactive | – | – | – | – | – | – | – |
| Nc1ncnc2c1ncn2[C@@H]1O[C@H](COP(=O)(O)OP(=O)(O)OP(=O)(O)O)[C@@H](O)[C@H]1O | – | – | – | – | – | – | – | 100% | < 1% | < 1% | 100% | 57% | 24% |
| Nc1ncnc2c1c(-c1cccc3c1Sc1ccccc1S3)cn2[C@@H]1O[C@H](CO)[C@@H](O)[C@H]1O | > 100 µM | 68.5 µM | – | 2.06 µM | 62.5 µM (≈ 30 µg/mL) | inactive | > 10 µM | – | – | – | – | – | – |

| SMILES | CC50 (BJ) | CC50 (MRC5) | Activity (Adenosine kinase [1]) | IC50 [2] | MIC [3] | Activity [4] | IC50 (Adenosine kinase [5]) | Activity (Adenosine kinase [6]) | Activity (Adenosine kinase [7]) | Activity (Adenosine kinase [8]) | Activity [9] | Activity [10] | Activity [11] |
| --- | --- | --- | --- | --- | --- | --- | --- | --- | --- | --- | --- | --- | --- |
| Nc1ncnc2c1c(-c1c[nH]nn1)cn2[C@@H]1O[C@H](CO)[C@@H](O)[C@H]1O | 0.08 µM | 0.1 µM | 37% | > 10 µM | > 250 µM | inactive | > 20 µM | – | – | – | – | – | – |
| Nc1ncnc2c1c(-c1ccccc1)cn2[C@@H]1O[C@H](CO)[C@@H](O)[C@H]1O | 50.9 µM | 21 µM | – | > 10 µM | 8 µM (≈ 2.74 µg/mL) | inactive | – | – | – | – | – | – | – |
| Nc1ncnc2c1c(-c1cn[nH]c1)cn2[C@@H]1O[C@H](CO)[C@@H](O)[C@H]1O | 48.9 µM | 71.2 µM | 9% | > 5 µM | 125 µM (≈ 41.5 µg/mL) | inactive | > 10 µM | – | – | – | – | – | – |
| Nc1ncnc2c1c(-c1ccc(COc3cccc4ccccc34)cc1)cn2[C@@H]1O[C@H](CO)[C@@H](O)[C@H]1O | > 100 µM | 92.1 µM | – | > 10 µM | 16 µM (≈ 7.98 µg/mL) | inactive | > 20 µM | – | – | – | – | – | – |
| COc1cc(-c2cn([C@@H]3O[C@H](CO)[C@@H](O)[C@H]3O)c3ncnc(N)c23)cc(OC)c1OC | > 100 µM | > 100 µM | – | > 10 µM | 8 µM (≈ 3.46 µg/mL) | inactive | > 10 µM | – | – | – | – | – | – |
| Nc1ncnc2c1c(-c1ccc(-c3ccccc3)cc1)cn2[C@@H]1O[C@H](CO)[C@@H](O)[C@H]1O | 40.6 µM | 93.7 µM | – | 7.67 µM | 4 µM (≈ 1.67 µg/mL) | inactive | > 20 µM | – | – | – | – | – | – |
| CC(C)Oc1ccc(-c2cn([C@@H]3O[C@H](CO)[C@@H](O)[C@H]3O)c3ncnc(N)c23)cc1 | 59.9 µM | 50.2 µM | – | 13.1 µM | 32 µM (≈ 12.8 µg/mL) | inactive | > 10 µM | – | – | – | – | – | – |
| CC(C)c1ccc(-c2cn([C@@H]3O[C@H](CO)[C@@H](O)[C@H]3O)c3ncnc(N)c23)cc1 | 63.9 µM | 52.9 µM | – | > 10 µM | 16 µM (≈ 6.15 µg/mL) | inactive | > 20 µM | – | – | – | – | – | – |
| Nc1ncnc2c1c(-c1cccc3ccccc13)cn2[C@@H]1O[C@H](CO)[C@@H](O)[C@H]1O | 90.6 µM | 94.4 µM | – | > 10 µM | 32 µM (≈ 12.6 µg/mL) | inactive | – | – | – | – | – | – | – |
| CSc1ccc(-c2cn([C@@H]3O[C@H](CO)[C@@H](O)[C@H]3O)c3ncnc(N)c23)cc1 | 18 µM | 45.6 µM | – | > 10 µM | 4 µM (≈ 1.55 µg/mL) | inactive | – | – | – | – | – | – | – |
| Nc1ncnc2c1c(-c1ccc3c(c1)OCO3)cn2[C@@H]1O[C@H](CO)[C@@H](O)[C@H]1O | 15.5 µM | 46 µM | – | > 10 µM | 8 µM (≈ 3.09 µg/mL) | inactive | > 10 µM | – | – | – | – | – | – |
| Nc1ncnc2c1c(-c1ccc[nH]1)cn2[C@@H]1O[C@H](CO)[C@@H](O)[C@H]1O | > 100 µM | 99.6 µM | 6% | 4.4 µM | 62.5 µM (≈ 20.7 µg/mL) | inactive | > 20 µM | – | – | – | – | – | – |
| Nc1ncnc2c1ncn2[C@@H]1O[C@H](CO)[C@@H](O)[C@H]1O | – | – | – | – | – | – | – | 100% | 8% | 20% | 100% | 44% | 58% |
| Nc1ncnc2c1c(/C=C/c1ccccc1)cn2[C@@H]1O[C@H](CO)[C@@H](O)[C@H]1O | 19.6 µM | 48.2 µM | – | 0.9 µM | 8 µM (≈ 2.95 µg/mL) | inactive | > 10 µM | – | – | – | – | – | – |
| Nc1ncnc2c1c(-c1ccc3c4c(cccc14)CC3)cn2[C@@H]1O[C@H](CO)[C@@H](O)[C@H]1O | 23.1 µM | > 100 µM | – | > 10 µM | 16 µM (≈ 6.7 µg/mL) | inactive | > 10 µM | – | – | – | – | – | – |
| Nc1ncnc2c1c(-c1cc[nH]c1)cn2[C@@H]1O[C@H](CO)[C@@H](O)[C@H]1O | 10.1 µM | 5.05 µM | 20% | > 10 µM | 62.5 µM (≈ 20.7 µg/mL) | inactive | 4.5 µM | – | – | – | – | – | – |
| Nc1ncnc2c1c(-c1ccc(-c3ccc4ccccc4c3)cc1)cn2[C@@H]1O[C@H](CO)[C@@H](O)[C@H]1O | 0.12 µM | 64.2 µM | – | > 10 µM | 62.5 µM (≈ 29.3 µg/mL) | inactive | > 20 µM | – | – | – | – | – | – |

From ChEMBL document CHEMBL3352218, “Structural basis for inhibition of mycobacterial and human adenosine kinase by 7-substituted 7-(Het)aryl-7-deazaadenine ribonucleosides” (J Med Chem, 2014)
